For data set [1], the target named is T1, ATP-dependent translocase ABCB1 (Homo sapiens, UniProt P08183). The experiment in a line: TP_TRANSPORTER: uptake in K562 and K562/ADR cell. Format: functional, cell-based.
Data set [2] addresses T1, ATP-dependent translocase ABCB1. The experiment in a line: TP_TRANSPORTER: transepithelial transport (basal to apical) in Caco-2 cells. Type of data set: functional, cell-based.

From ChEMBL document CHEMBL2074057, “Active secretion of drugs from the small intestinal epithelium in rats by P-glycoprotein functioning as an absorption barrier” (J Pharm Pharmacol, 1996) come the findings set out here.

T1 sequence (P08183 whole entry): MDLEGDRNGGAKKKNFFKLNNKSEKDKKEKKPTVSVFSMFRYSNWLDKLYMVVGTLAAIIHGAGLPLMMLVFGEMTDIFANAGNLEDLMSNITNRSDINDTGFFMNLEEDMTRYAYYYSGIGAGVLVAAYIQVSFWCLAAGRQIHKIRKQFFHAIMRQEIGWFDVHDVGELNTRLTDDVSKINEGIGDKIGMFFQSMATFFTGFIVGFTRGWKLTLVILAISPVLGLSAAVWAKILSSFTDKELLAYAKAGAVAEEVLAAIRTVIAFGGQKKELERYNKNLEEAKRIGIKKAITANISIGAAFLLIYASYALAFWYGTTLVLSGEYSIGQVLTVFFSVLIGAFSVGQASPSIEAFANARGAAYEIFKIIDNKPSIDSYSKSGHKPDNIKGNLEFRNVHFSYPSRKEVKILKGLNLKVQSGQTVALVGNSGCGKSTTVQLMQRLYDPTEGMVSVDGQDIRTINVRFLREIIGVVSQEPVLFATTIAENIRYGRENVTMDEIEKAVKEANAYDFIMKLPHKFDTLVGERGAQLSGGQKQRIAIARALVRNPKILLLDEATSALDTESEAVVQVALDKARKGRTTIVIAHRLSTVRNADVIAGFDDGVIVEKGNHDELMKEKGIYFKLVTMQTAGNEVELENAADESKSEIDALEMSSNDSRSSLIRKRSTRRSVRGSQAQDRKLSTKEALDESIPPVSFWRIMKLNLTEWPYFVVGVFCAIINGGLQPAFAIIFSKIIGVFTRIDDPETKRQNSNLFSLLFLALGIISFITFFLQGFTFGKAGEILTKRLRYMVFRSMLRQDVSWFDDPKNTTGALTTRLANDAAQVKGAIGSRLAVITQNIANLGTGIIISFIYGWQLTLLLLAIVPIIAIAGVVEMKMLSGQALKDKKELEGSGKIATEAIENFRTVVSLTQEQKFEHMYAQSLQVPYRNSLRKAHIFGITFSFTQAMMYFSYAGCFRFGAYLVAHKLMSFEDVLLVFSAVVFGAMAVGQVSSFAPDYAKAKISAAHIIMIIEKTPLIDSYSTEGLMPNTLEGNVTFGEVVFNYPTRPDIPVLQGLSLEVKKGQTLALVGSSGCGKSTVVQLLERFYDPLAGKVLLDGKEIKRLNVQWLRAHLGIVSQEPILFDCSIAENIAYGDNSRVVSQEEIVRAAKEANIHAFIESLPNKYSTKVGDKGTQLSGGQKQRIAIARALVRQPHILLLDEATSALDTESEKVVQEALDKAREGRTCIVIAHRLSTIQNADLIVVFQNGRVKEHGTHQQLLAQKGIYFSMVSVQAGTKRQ

On to `CC(C)(C)NCC(O)COc1cccc2c1CC(O)C(O)C2` (stereo not given) [NADOLOL], for which, in data set [1], the Activity result is “substrate [+]”.
Same read-out and setting: the same measure for `CC(C)(C)NC[C@H](O)COc1nsnc1N1CCOCC1` [TIMOLOL]: “substrate [+]”.
Consider `CCN(CC)C(=O)Nc1ccc(OCC(O)CNC(C)(C)C)c(C(C)=O)c1` (stereo not given) [CELIPROLOL], for which the Activity result in data set [1] is “substrate [+]”.
`CCCC(=O)Nc1ccc(OCC(O)CNC(C)C)c(C(C)=O)c1` (stereo not given) [ACEBUTOLOL]: the Activity result in data set [1] and in data set [2] was “substrate [+]” in each case.
